molecular target: T1, Olfr90 (Mus musculus, UniProt Q0VEL5); experiment: Luciferase reporter assay for ligand screening, HEK293T cells transfected with Lucy-Olfr90; assay type: cell-based; conditions: FIG. 2: p<0.0005 for all conditions vs 0 mM
T1 construct: Flag; expressed in transfected cells; host or cells: HEK293T
T1 sequence (Q0VEL5 1-310): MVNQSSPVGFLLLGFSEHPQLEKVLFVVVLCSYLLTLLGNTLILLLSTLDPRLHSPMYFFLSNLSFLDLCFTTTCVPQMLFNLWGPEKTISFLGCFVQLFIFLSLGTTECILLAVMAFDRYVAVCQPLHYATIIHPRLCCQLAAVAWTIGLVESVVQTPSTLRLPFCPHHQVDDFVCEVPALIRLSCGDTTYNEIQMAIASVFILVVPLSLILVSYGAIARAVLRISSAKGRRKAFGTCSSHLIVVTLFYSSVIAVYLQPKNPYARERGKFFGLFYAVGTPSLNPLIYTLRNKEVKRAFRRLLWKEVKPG
Source text: HEK293T cells were transfected with Lucy-Olfr90 and two luciferase constructs, one of which was constitutively active (Renilla) while the other was only activated by an increase in intracellular cyclic AMP due to ligand binding (Firefly).
A luciferase reporter assay was employed for ligand screening (FIG. 1). In this assay, Olfr90 may be transfected into HEK293T cells along with a firefly luciferase construct whose activity is dependent upon elevated [cAMP]i. Upon binding its ligand, the expressed Olfr90 increases [cAMP]i, leading to increased transcription of firefly luciferase (FIG. 1). A constitutively active luciferase (Renilla) is co-transfected; therefore, the ratio of Firefly/Renilla is a measure of OR activation.
In this assay, it is essential that the Olfr90 is on the cell surface. […] A novel N-terminal tag which allows for surface trafficking of the majority of the renal Olfr90 was used. This tag is a leucine rich 17 amino acid sequence (“Lucy” tag) that not only aids in trafficking to the surface, but is cleaved before the Olfr90 reaches the cell surface.
In HEK cells or hana3 cells, Olfr90 will be expressed along with along with a firefly luciferase construct whose activity is dependent upon elevated [cAMP]i. Olfr90 may be transfected with or without various chaperones (Ric8b, RTP1S, REEP, etc.) and with or without various tags (Rho, Flag, Lucy, etc.). Upon binding its ligand, the expressed OR increases [cAMP]i, leading to increased transcription of firefly luciferase. A constitutively active luciferase (Renilla) is co-transfected; therefore, the ratio of Firefly/Renilla is a measure of OR activation.

Structure (SMILES) | Olfr90 response (luciferase output, Firefly/Renilla ratio) to isolated chemicals
C=CC(C)(O)CCC=C(C)C (stereo not drawn) [Linalool] | responded in a dose dependent manner
CCCC1CCSC(C)O1 (stereo not drawn) [MPOT, 2-Methyl-4-Propyl-3,1-Oxathiane] | responded in a dose dependent manner
C=CC(O)CCCCC (stereo not drawn) [Odorant 1-Octen-3-ol, 1-Octen-3-ol] | responded in a dose dependent manner

From US11592445B2, “OLFR90 specificity and methods of detection” (THE JOHNS HOPKINS UNIVERSITY, priority 2016, dated 2023)
